Source: BigSolDB 2.1

CCOc1ccc2ccccc2c1C(=O)O
solubility (mole fraction)
Conditions | 278.15 K | 283.15 K | 288.15 K | 293.15 K | 298.15 K | 303.15 K | 308.15 K | 313.15 K | 318.15 K | 323.15 K
in ethanol | 0.0268 | 0.0325 | 0.0392 | 0.0469 | 0.0565 | 0.0688 | 0.0836 | 0.101 | 0.119 | 0.136
in methanol | 0.0304 | 0.037 | 0.0443 | 0.0552 | 0.0671 | 0.0821 | 0.0951 | 0.114 | 0.134 | 0.151
in n-propanol | 0.0212 | 0.0236 | 0.0283 | 0.0345 | 0.0424 | 0.0511 | 0.0632 | 0.0779 | 0.092 | 0.114
